Consider 18 compounds from patent publication US20230322761A1, “DEGRADATION OF BRUTON'S TYROSINE KINASE (BTK) BY CONJUGATION OF BTK INHIBITORS WITH E3 LIGASE LIGAND AND METHODS OF USE” (BEIGENE, LTD., priority 2020, published 2023).

This assay addresses T1, BTK (Homo sapiens, UniProt Q06187).
T1 construct: endogenous in cells; host or cells: TMD-8 cells
The experiment in a line: BTK degradation in TMD-8 cells, HTRF assay after 6 h treatment. The format is cell-based. The following applies: for DC50: IC50 (DC50) of BTK degradation; for Dmax: TMD8, maximum percentage of inhibition (degradation). In a few lines:
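TMD-8 cells treated for 6 h with 8 compound doses in 6-fold dilution steps from a 1 mM 500× DMSO stock (0.2% DMSO), then lysed 30 min at room temperature. BTK in lysate detected by HTRF (665/620 nm) after overnight antibody incubation; DC50 from four-parameter curve fit.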
Background: In TR-FRET formats the signal depends on donor and acceptor labels being close together.

Where “and” joins values, the source holds several entries; their conditions need not be identical. Equal entries are not always repeated.

T1 sequence (Q06187 whole entry): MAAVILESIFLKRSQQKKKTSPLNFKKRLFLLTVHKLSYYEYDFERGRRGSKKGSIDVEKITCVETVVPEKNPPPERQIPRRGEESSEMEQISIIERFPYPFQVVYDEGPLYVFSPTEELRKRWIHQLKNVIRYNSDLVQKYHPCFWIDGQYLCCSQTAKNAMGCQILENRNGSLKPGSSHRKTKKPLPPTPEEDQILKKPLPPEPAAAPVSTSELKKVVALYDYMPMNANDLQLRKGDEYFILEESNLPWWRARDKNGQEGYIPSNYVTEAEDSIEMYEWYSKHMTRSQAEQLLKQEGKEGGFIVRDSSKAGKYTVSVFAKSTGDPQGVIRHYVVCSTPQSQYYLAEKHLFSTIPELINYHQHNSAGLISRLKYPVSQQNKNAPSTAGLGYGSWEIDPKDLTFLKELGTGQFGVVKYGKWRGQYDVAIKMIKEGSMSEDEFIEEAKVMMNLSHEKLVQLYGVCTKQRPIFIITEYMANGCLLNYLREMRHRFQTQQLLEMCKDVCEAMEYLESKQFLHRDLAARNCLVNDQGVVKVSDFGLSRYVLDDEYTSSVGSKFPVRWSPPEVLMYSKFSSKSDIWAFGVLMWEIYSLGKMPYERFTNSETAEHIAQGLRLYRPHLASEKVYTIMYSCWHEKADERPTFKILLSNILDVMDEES

In general, DC50 refers to the midpoint of the concentration-degradation curve. Higher therefore signals a less potent degrader. The compound `Cc1cc(-c2n[nH]c3ncc(-c4ccc(N5CCN(CCc6ccc(N7CCC(=O)NC7=O)cc6)CC5)cn4)cc23)ccc1[C@@H](C)NC(=O)c1noc(C(C)(C)C)n1` [Example 122, (R)-5-(tert-butyl)-N-(1-(4-(5-(5-(4-(4-(2,4-dioxotetrahydropyrimidin-1(2H)-yl)phenethyl)piperazin-1-yl)pyridin-2-yl)-1H-pyrazolo[3,4-b]pyridin-3-yl)-2-methylphenyl)ethyl)-1,2,4-oxadiazole-3-carboxamide] had a DC50 of 2.22 nM. That is a single-digit nanomolar value.

Compound `Cc1cc(-c2n[nH]c3ncc(-c4ccc(C5(F)CCN(CC6CCN(c7ccc(N8CCC(=O)NC8=O)cc7)CC6)CC5)cn4)cc23)ccc1[C@@H](C)NC(=O)c1nc(C(C)(C)C)no1` [Example 205, (R)-3-(tert-butyl)-N-(1-(4-(5-(5-(1-((1-(4-(2,4-dioxotetrahydropyrimidin-1(2H)-yl)phenyl)piperidin-4-yl)methyl)-4-fluoropiperidin-4-yl)pyridin-2-yl)-1H-pyrazolo[3,4-b]pyridin-3-yl)-2-methylphenyl)ethyl)-1,2,4-oxadiazole-5-carboxamide] had a 50% degradation concentration (DC50) of 0.736 nM.

As to `Cc1cc(-c2n[nH]c3ncc(-c4ccc(N5CCN(CCc6ccc(N7CCC(=O)NC7=O)nc6)CC5)cc4)cc23)ccc1[C@@H](C)NC(=O)c1noc(C(C)(C)C)n1` [Example 159, (R)-5-(tert-butyl)-N-(1-(4-(5-(4-(4-(2-(6-(2,4-dioxotetrahydropyrimidin-1(2H)-yl)pyridin-3-yl)ethyl)piperazin-1-yl)phenyl)-1H-pyrazolo[3,4-b]pyridin-3-yl)-2-methylphenyl)ethyl)-1,2,4-oxadiazole-3-carboxamide], it took 56.3 nM to reach half-maximal degradation (DC50).

For `Cc1cc(-c2n[nH]c3ncc(-c4ccc(N5CCN(CCc6ccc(C7CCC(=O)NC7=O)cn6)CC5)cc4)cc23)ccc1[C@@H](C)NC(=O)c1noc(C(C)(C)C)n1` (stereo partly drawn) [Example 101, 5-(tert-butyl)-N-((1R)-1-(4-(5-(4-(4-(2-(5-(2,6-dioxopiperidin-3-yl)pyridin-2-yl)ethyl)piperazin-1-yl)phenyl)-1H-pyrazolo[3,4-b]pyridin-3-yl)-2-methylphenyl)ethyl)-1,2,4-oxadiazole-3-carboxamide], the DC50 came out at 0.959 nM.

On to `Cc1cc(CCN2CCN(c3ccc(-c4cnc5[nH]nc(-c6ccc([C@@H](C)NC(=O)c7noc(C(C)(C)C)n7)c(CO)c6)c5c4)cc3)CC2)ncc1C1CCC(=O)NC1=O` (stereo partly drawn) [Example 149, 5-(tert-butyl)-N-((1R)-1-(4-(5-(4-(4-(2-(5-(2,6-dioxopiperidin-3-yl)-4-methylpyridin-2-yl)ethyl)piperazin-1-yl)phenyl)-1H-pyrazolo[3,4-b]pyridin-3-yl)-2-(hydroxymethyl)phenyl)ethyl)-1,2,4-oxadiazole-3-carboxamide], for which the DC50 came out at 1.6 nM.

In general, Dmax refers to the largest share of the target that was removed. A low value points to shallow degradation. `CC(C)(C)c1noc(C(=O)NCc2ccc(-c3n[nH]c4ncc(-c5ccc(N6CCN(CCC7CCN(c8ccc(N9CCC(=O)NC9=O)c(F)c8)CC7)CC6)cc5)cc34)cc2F)n1` [Example 17, 3-(tert-butyl)-N-(4-(5-(4-(4-(2-(1-(4-(2,4-dioxotetrahydropyrimidin-1(2H)-yl)-3-fluorophenyl)piperidin-4-yl)ethyl)piperazin-1-yl)phenyl)-1H-pyrazolo[3,4-b]pyridin-3-yl)-2-fluorobenzyl)-1,2,4-oxadiazole-5-carboxamide]: half-maximal degradation (DC50) was put at 5.9 nM and the Dmax came to 96.4%.

For `Cc1cc(-c2n[nH]c3ncc(-c4ccc(N5CCN(CC6CCN(c7ccc(N8CC(=O)NC8=O)cc7)CC6)CC5)cc4)cc23)ccc1[C@@H](C)NC(=O)c1nc(C(C)(C)C)no1` [Example 218, (R)-3-(tert-butyl)-N-(1-(4-(5-(4-(4-((1-(4-(2,4-dioxoimidazolidin-1-yl)phenyl)piperidin-4-yl)methyl)piperazin-1-yl)phenyl)-1H-pyrazolo[3,4-b]pyridin-3-yl)-2-methylphenyl)ethyl)-1,2,4-oxadiazole-5-carboxamide], half-maximal degradation (DC50) was put at 19 nM.

For the compound `Cc1cc(-c2n[nH]c3ncc(-c4ccc(C5CCN(CCc6ccc(OC7CCC(=O)NC7=O)cc6)CC5)cc4)cc23)ccc1CNC(=O)c1nc(C(C)(C)C)no1` (stereo not shown) [Example 29, 3-(tert-butyl)-N-(4-(5-(4-(1-(4-((2,6-dioxopiperidin-3-yl)oxy)phenethyl)piperidin-4-yl)phenyl)-1H-pyrazolo[3,4-b]pyridin-3-yl)-2-methylbenzyl)-1,2,4-oxadiazole-5-carboxamide], the DC50 is 3.2 nM and the Dmax came to 95.4%.

`Cc1cc(-c2n[nH]c3ncc(-c4ccc(C5CCN(CC6CCN(c7ccc(N8CCC(=O)NC8=O)cc7)CC6)CC5)cc4)cc23)ccc1CNC(=O)c1nc(C(C)(C)C)no1` [Example 4, 3-(tert-butyl)-N-(4-(5-(4-(1-((1-(4-(2,4-dioxotetrahydropyrimidin-1(2H)-yl)phenyl)piperidin-4-yl)methyl)piperidin-4-yl)phenyl)-1H-pyrazolo[3,4-b]pyridin-3-yl)-2-methylbenzyl)-1,2,4-oxadiazole-5-carboxamide]: the DC50 came out at 1.19 nM and the Dmax was 96.7%.

The compound `Cc1cc(-c2n[nH]c3ncc(-c4ccc(CCN5CCC(c6ccc([C@@H]7CCC(=O)NC7=O)cc6)CC5)cc4)cc23)ccc1CNC(=O)c1nc(C(C)(C)C)no1` [Example 88, (S)-3-(tert-butyl)-N-(4-(5-(4-(2-(4-(4-(2,6-dioxopiperidin-3-yl)phenyl)piperidin-1-yl)ethyl)phenyl)-1H-pyrazolo[3,4-b]pyridin-3-yl)-2-methylbenzyl)-1,2,4-oxadiazole-5-carboxamide] yielded a DC50 of 9.41 nM.

With `Cc1cc(-c2n[nH]c3ncc(-c4ccc(N5CCN(CC6CCN(c7ccc(N8CCC(=O)NC8=O)c(C)c7)CC6)CC5)nc4)cc23)ccc1CNC(=O)c1noc(C(C)(C)C)n1` [Example 69, 5-(tert-butyl)-N-(4-(5-(6-(4-((1-(4-(2,4-dioxotetrahydropyrimidin-1(2H)-yl)-3-methylphenyl)piperidin-4-yl)methyl)piperazin-1-yl)pyridin-3-yl)-1H-pyrazolo[3,4-b]pyridin-3-yl)-2-methylbenzyl)-1,2,4-oxadiazole-3-carboxamide], the DC50 was 2.5 nM and 2.37 nM.

`Cc1cc(-c2n[nH]c3ncc(-c4ccc(N5CCN(CC6CCN(c7ccc(N8CCC(=O)NC8=O)cc7)CC6)CC5)cc4)cc23)c(F)cc1[C@@H](C)NC(=O)c1noc(C(C)(C)C)n1` [Example 44, (R)-5-(tert-butyl)-N-(1-(4-(5-(4-(4-((1-(4-(2,4-dioxotetrahydropyrimidin-1(2H)-yl)phenyl)piperidin-4-yl)methyl)piperazin-1-yl)phenyl)-1H-pyrazolo[3,4-b]pyridin-3-yl)-5-fluoro-2-methylphenyl)ethyl)-1,2,4-oxadiazole-3-carboxamide] displayed a DC50 of 6.02 nM.

In turn, `Cc1cc(-c2n[nH]c3ncc(-c4ccc(C5CCN(CC6CCN(c7ccc(N8CCC(=O)NC8=O)cc7)CC6)CC5)cn4)cc23)ccc1[C@@H](C)NC(=O)c1noc(C(C)(C)C)n1` [Example 72, (R)-5-(tert-butyl)-N-(1-(4-(5-(5-(1-((1-(4-(2,4-dioxotetrahydropyrimidin-1(2H)-yl)phenyl)piperidin-4-yl)methyl)piperidin-4-yl)pyridin-2-yl)-1H-pyrazolo[3,4-b]pyridin-3-yl)-2-methylphenyl)ethyl)-1,2,4-oxadiazole-3-carboxamide] showed a DC50 of 1.21 nM.

In turn, `Cc1cc(-c2n[nH]c3ncc(-c4ccc(N5CCN(CC6CCN(c7ccc(N8CCC(=O)NC8=O)cc7)CC6)CC5)cc4)cc23)ccc1[C@@H](C)NC(=O)c1nc(C(C)(C)C)no1` [Example 21, (R)-3-(tert-butyl)-N-(1-(4-(5-(4-(4-((1-(4-(2,4-dioxotetrahydropyrimidin-1(2H)-yl)phenyl)piperidin-4-yl)methyl)piperazin-1-yl)phenyl)-1H-pyrazolo[3,4-b]pyridin-3-yl)-2-methylphenyl)ethyl)-1,2,4-oxadiazole-5-carboxamide] had a DC50 of 8.62 nM and a Dmax of 97.5%.

`Cc1cc(-c2n[nH]c3ncc(-c4ccc(N5CCN(CC6CCN(c7ccc(N8CCC(=O)NC8=O)cc7)CC6)CC5)cc4)cc23)ccc1CNC(=O)c1csc(C(C)(C)C)n1` [Example 93, 2-(tert-butyl)-N-(4-(5-(4-(4-((1-(4-(2,4-dioxotetrahydropyrimidin-1(2H)-yl)phenyl)piperidin-4-yl)methyl)piperazin-1-yl)phenyl)-1H-pyrazolo[3,4-b]pyridin-3-yl)-2-methylbenzyl)thiazole-4-carboxamide]: the DC50 was 28.8 nM.

Take `Cc1cc(-c2n[nH]c3ncc(-c4ccc(N5CCN(CCc6ccc(N7CCC(=O)NC7=O)c(C)c6)CC5)cc4)cc23)ccc1[C@@H](C)NC(=O)c1noc(C(C)(C)C)n1` [Example 119, (R)-5-(tert-butyl)-N-(1-(4-(5-(4-(4-(4-(2,4-dioxotetrahydropyrimidin-1(2H)-yl)-3-methylphenethyl)piperazin-1-yl)phenyl)-1H-pyrazolo[3,4-b]pyridin-3-yl)-2-methylphenyl)ethyl)-1,2,4-oxadiazole-3-carboxamide]: the DC50 came to 2.12 nM. This DC50 is about 14-fold lower than that of the compound before.

Turning to `Cc1cc(-c2n[nH]c3ncc(-c4ccc(N5CCN(CC6CCN(c7ccc(N8CCC(=O)NC8=O)cc7)CC6)CC5)cc4)cc23)c(F)cc1CNC(=O)c1noc(C(C)(C)C)n1` [Example 100, 5-(tert-butyl)-N-(4-(5-(4-(4-((1-(4-(2,4-dioxotetrahydropyrimidin-1(2H)-yl)phenyl)piperidin-4-yl)methyl)piperazin-1-yl)phenyl)-1H-pyrazolo[3,4-b]pyridin-3-yl)-5-fluoro-2-methylbenzyl)-1,2,4-oxadiazole-3-carboxamide], it took 10.2 nM to reach half-maximal degradation (DC50). Against the preceding compound, the DC50 is about 4.8-fold higher.

`Cc1cc(-c2n[nH]c3ncc(-c4ccc(N5CCN(CCc6ccc([C@@H]7CCC(=O)NC7=O)c(F)c6)CC5)cn4)cc23)ccc1[C@@H](C)NC(=O)c1noc(C(C)(C)C)n1` [Example 182, 5-(tert-butyl)-N—((R)-1-(4-(5-(5-(4-(4-((S)-2,6-dioxopiperidin-3-yl)-3-fluorophenethyl)piperazin-1-yl)pyridin-2-yl)-1H-pyrazolo[3,4-b]pyridin-3-yl)-2-methylphenyl)ethyl)-1,2,4-oxadiazole-3-carboxamide] displayed a DC50 of 11.8 nM. This DC50 and that of the compound before are within 1.5-fold of each other.
